Laboratory results reported in publication PMC12024561, “Production, Biochemical Characterization, and Application of Laccase from Halophilic Curvularia lunata MLK46 Recovered from Mangrove Rhizosphere” (Biology, 2025).

Test system: T1, laccase from C. lunata MLK46 (MLK46 laccase)
T1 construct: gene EC 1.10.3.2; secreted native enzyme purified from culture filtrate (ammonium sulphate, DEAE-Sepharose)
Experiment: spectrophotometric oxidation assay, Lineweaver-Burk
Format: biochemical, Curvularia lunata
Conditions: free enzyme, O2 as electron acceptor, pH and temperature of kinetics not clearly stated ("stated conditions")

SMILES	Km [mM]	Km (A420, standard assay at 50 °C) [mM]
Oc1c(Cl)cccc1Cl [2,6-dichlorophenol]	5.55	
COc1ccccc1O [guaiacol]	10.3	
COc1cc(-c2ccc(N)c(OC)c2)ccc1N [o-dianisidine]	2.7	
CCn1c(=NN=c2sc3cc(S(=O)(=O)O)ccc3n2CC)sc2cc(S(=O)(=O)O)ccc21 [ABTS, 2,2’-azino-bis(3-ethylbenzothiazoline-6-sulfonic acid)]		4.17
